The target of the experiment is Bacillus amyloliquefaciens alpha-amylase (BAA) (Bacillus amyloliquefaciens, UniProt P00692). In words: Bernfeld DNS assay of starch hydrolysis ([…] nm) with commercial enzyme. Type of experiment: biochemical.

Molecules are shown by their SMILES.

Chain of Bacillus amyloliquefaciens alpha-amylase (BAA) (P00692 32-514): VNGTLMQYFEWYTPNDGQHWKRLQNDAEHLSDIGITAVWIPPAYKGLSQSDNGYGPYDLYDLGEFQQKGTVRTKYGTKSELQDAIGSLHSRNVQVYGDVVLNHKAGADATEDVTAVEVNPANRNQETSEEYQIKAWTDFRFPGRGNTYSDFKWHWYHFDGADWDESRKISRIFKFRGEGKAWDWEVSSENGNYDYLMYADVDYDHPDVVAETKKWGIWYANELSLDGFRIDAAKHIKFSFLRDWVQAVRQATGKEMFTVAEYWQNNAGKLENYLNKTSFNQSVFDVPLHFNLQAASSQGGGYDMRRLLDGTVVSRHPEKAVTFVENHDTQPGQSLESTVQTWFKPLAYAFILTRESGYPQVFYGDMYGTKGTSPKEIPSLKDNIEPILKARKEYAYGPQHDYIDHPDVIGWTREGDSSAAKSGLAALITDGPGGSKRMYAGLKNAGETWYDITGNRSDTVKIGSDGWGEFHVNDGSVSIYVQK

For orientation: IC50 means the concentration needed to halve the response being measured. In the case of `N[C@@H](Cc1ccc(O)cc1)C(=O)O` [Tyr, tyrosine], the IC50 was around 100 mM.

Values taken from article PMC11162409, “Phenylalanine as an effective stabilizer and aggregation inhibitor of Bacillus amyloliquefaciens alpha-amylase” (AMB Express, 2024).
